Results as given in patent US5595730A, “Lactate dehydrogenase inhibitors in cosmetic compositions” (priority 1996, dated 1997).
Read-outs that look alike come from different tables or passages of the source.

How the values were obtained:
procollagen 1 = test: Assay for collagen synthesis (secreted procollagen 1 immunoassay, fibroblasts); conditions: actives 0.2 to 20 mM, serum-free medium, 48 hours
Procedure: Neonatal human dermal fibroblasts were purchased from Clonetics Corp., San Diego, Calif. All materials for cell culture were purchased from Life Technologies, N.Y. Cells were maintained in DMEM with 10% fetal bovine serum and used in passages 5-10. Confluent 96-well plates containing fibroblasts were treated with actives (0.2 to 20 mM) in serum-free medium for 48 hours. […] This was carried out in a BioDot SF apparatus according to the manufacturer's instructions (BioRad Labs, CA) and the blot was developed using a Vectastain Kit (PK6104, Vector Labs, CA) as per the manufacturer's directions. Color intensity was quantitated using an Ultroscan XL densitometer (Pharmacia LKB). Fold increase was calculated as (density of treated)/untreated.

[1] = tested on: Normal human epidermal keratinocytes (NHEK); test: Keratinocyte proliferation (DNA content, fluorometric); assay type: cell-based; conditions: for activation at 70 µM: 0.07 mM; for Keratinocyte proliferation, % Increase Over Control: Table 7, single agent alone
Procedure: Normal human epidermal keratinocytes (NHEK) derived from neonatal foreskin were used for all experiments. Media were purchased from Clonetics Corp., San Diego, Calif. Cell stocks frozen in passage 2 were grown in Keratinocyte Growth Medium (KGM) and passaged when 70-80% confluent. Cells were seeded in 96 well plates (Corning) at a density of 7500 cells/well in KGM. After 24 hours, cells were rinsed and dosed with test compounds in 200 μl of Keratinocyte Basal Medium (KBM). Plates were incubated for three days at 37° C., 5% CO2. Cell proliferation was estimated by assaying for DNA content by a fluorometric method described by Rago et al. (Analytical Biochemistry, 191:31-34, 1990). Medium was removed and cells were rinsed with phosphate buffered saline solution. 100 μl of sterile distilled water was added to each well and plates were frozen at -70° C. for one and a half hours. Plates were thawed for one hour at which time 100 μl of a 20 ug/ml solution of Bisbenzimide H33258 fluorochrome (Calbiochem Corp., La Jolla, Calif.) was added to each well. The fluorochrome was prepared just prior to use in 10 mM Tris, 1 mM EDTA, 4M NaCI, pH 7.4. Plates were read in a Millipore Cytofluor fluorescent plate reader to quantify DNA (excitation 360 nm, emission 460 nm). Percent increase over control was calculated from blank-corrected readings as (treated-untreated)/(untreated)*100. Each data point in the Tables below represents a mean of 5 or 6 replicates.
The procedure of Example 2 was repeated except that various co-active ingredients were tested for their ability to stimulate keratinocyte proliferation.
The procedure of Example 2 was repeated to test the effect of combination of an LDH inhibitor with another carboxylic acid on keratinocyte proliferation.

## O=C(O)CC(=O)C(=O)O [Oxaloacetate]
Procollagen 1
  Collagen Synthesis, Maximum fold over Control: 3.0 fold
[1]; Homo sapiens, NHEK, 72 h, read-out: Keratinocyte Proliferation (% increase over Control), Table 5, Test A, 0.002 mM
  activation at 2 µM: 11%
[1]; Homo sapiens, NHEK, 72 h, read-out: Keratinocyte Proliferation (% increase over Control), Table 5, Test A, 0.02 mM
  activation at 20 µM: 15%
[1]; Homo sapiens, NHEK, 72 h, read-out: Keratinocyte Proliferation (% increase over Control), Table 5, Test A, 0.2 mM
  activation at 200 µM: 22%
[1]; Homo sapiens, NHEK, 72 h, read-out: Keratinocyte Proliferation (% increase over Control), Table 5, Test A, 2.0 mM
  activation at 2000 µM: 53%
[1]; Homo sapiens, NHEK, 72 h, read-out: Keratinocyte Proliferation (% increase over Control), Table 5, Test A, 10 mM
  activation at 10000 µM: 110%
[1]; Homo sapiens, NHEK, 72 h, read-out: Keratinocyte Proliferation (% increase over Control), Table 5, Test B, 0.02 mM
  activation at 20 µM: 30%
[1]; Homo sapiens, NHEK, 72 h, read-out: Keratinocyte Proliferation (% increase over Control), Table 5, Test B, 0.2 mM
  activation at 200 µM: 20%
[1]; Homo sapiens, NHEK, 72 h, read-out: Keratinocyte Proliferation (% increase over Control), Table 5, Test B, 2.0 mM
  activation at 2000 µM: 16%
[1]; Homo sapiens, NHEK, 72 h, read-out: Keratinocyte Proliferation (% increase over Control), Table 5, Test B, 10 mM
  activation at 10000 µM: 70%
[1]; Homo sapiens, NHEK, 72 h, read-out: Keratinocyte Proliferation (% increase over Control), Table 5, Test B, 20 mM
  activation at 20000 µM: 44%
[1]; Homo sapiens, NHEK, 72 h, read-out: Keratinocyte Proliferation (% increase over Control), Table 5, Test C, 0.15 mM
  activation at 150 µM: 13%
[1]; Homo sapiens, NHEK, 72 h, read-out: Keratinocyte Proliferation (% increase over Control), Table 5, Test C, 0.3 mM
  activation at 300 µM: 18%
[1]; Homo sapiens, NHEK, 72 h, read-out: Keratinocyte Proliferation (% increase over Control), Table 5, Test C, 0.6 mM
  activation at 600 µM: 20%
[1]; Homo sapiens, NHEK, 72 h, read-out: Keratinocyte Proliferation (% increase over Control), Table 5, Test C, 1.25 mM
  activation at 1250 µM: 18%
[1]; Homo sapiens, NHEK, 72 h, read-out: Keratinocyte Proliferation (% increase over Control), Table 5, Test C, 2.5 mM
  activation at 2500 µM: 40%
[1]; Homo sapiens, NHEK, 72 h, read-out: Keratinocyte Proliferation (% increase over Control), Table 5, Test C, 5.0 mM
  activation at 5000 µM: 35%
[1]; Homo sapiens, NHEK, 72 h, read-out: Keratinocyte Proliferation (% increase over Control), Table 5, Test C, 10 mM
  activation at 10000 µM: 0%
[1]; Homo sapiens, NHEK, 72 h, read-out: Keratinocyte Proliferation (% increase over Control), Table 5, Test D, 0.08 mM
  activation at 80 µM: 56%
[1]; Homo sapiens, NHEK, 72 h, read-out: Keratinocyte Proliferation (% increase over Control), Table 5, Test D, 0.15 mM
  activation at 150 µM: 76%
[1]; Homo sapiens, NHEK, 72 h, read-out: Keratinocyte Proliferation (% increase over Control), Table 5, Test D, 0.3 mM
  activation at 300 µM: 63%
[1]; Homo sapiens, NHEK, 72 h, read-out: Keratinocyte Proliferation (% increase over Control), Table 5, Test D, 0.6 mM
  activation at 600 µM: 48%
[1]; Homo sapiens, NHEK, 72 h, read-out: Keratinocyte Proliferation (% increase over Control), Table 5, Test D, 1.25 mM
  activation at 1250 µM: 37%
[1]; Homo sapiens, NHEK, 72 h, read-out: Keratinocyte Proliferation (% increase over Control), Table 5, Test D, 2.5 mM
  activation at 2500 µM: 37%
[1]; Homo sapiens, NHEK, 72 h, read-out: Keratinocyte Proliferation (% increase over Control), Table 5, Test D, 5.0 mM
  activation at 5000 µM: 52%
[1]; Homo sapiens, NHEK, 72 h, read-out: Keratinocyte Proliferation (% increase over Control), Table 5, Test D, 10 mM
  activation at 10000 µM: 52%

## CC(=O)O [Acetate]
Procollagen 1
  Collagen Synthesis, Maximum fold over Control: 2.0 fold
[1]; Homo sapiens, NHEK, 72 h, Table 4, Test A, 0.002 mM, read-out: Keratinocyte Proliferation (% increase over control)
  activation at 2 µM: 22%
[1]; Homo sapiens, NHEK, 72 h, Table 4, Test A, 0.02 mM, read-out: Keratinocyte Proliferation (% increase over control)
  activation at 20 µM: 31%
[1]; Homo sapiens, NHEK, 72 h, Table 4, Test A, 0.2 mM, read-out: Keratinocyte Proliferation (% increase over control)
  activation at 200 µM: 43%
[1]; Homo sapiens, NHEK, 72 h, Table 4, Test A, 2.0 mM, read-out: Keratinocyte Proliferation (% increase over control)
  activation at 2000 µM: 46%
[1]; Homo sapiens, NHEK, 72 h, Table 4, Test A, 10 mM, read-out: Keratinocyte Proliferation (% increase over control)
  activation at 10000 µM: 63%
[1]; Homo sapiens, NHEK, 72 h, Table 4, Test B, 0.2 mM, read-out: Keratinocyte Proliferation (% increase over control)
  activation at 200 µM: 12%
[1]; Homo sapiens, NHEK, 72 h, Table 4, Test B, 2.0 mM, read-out: Keratinocyte Proliferation (% increase over control)
  activation at 2000 µM: 19%
[1]; Homo sapiens, NHEK, 72 h, Table 4, Test B, 10 mM, read-out: Keratinocyte Proliferation (% increase over control)
  activation at 10000 µM: 0%
[1]; Homo sapiens, NHEK, 72 h, Table 4, Test B, 20 mM, read-out: Keratinocyte Proliferation (% increase over control)
  activation at 20000 µM: 0%
[1]; Homo sapiens, NHEK, 72 h, Table 4, Test C, 0.156 mM, read-out: Keratinocyte Proliferation (% increase over control)
  activation at 156 µM: 13%
[1]; Homo sapiens, NHEK, 72 h, Table 4, Test C, 0.313 mM, read-out: Keratinocyte Proliferation (% increase over control)
  activation at 313 µM: 32%
[1]; Homo sapiens, NHEK, 72 h, Table 4, Test C, 0.625 mM, read-out: Keratinocyte Proliferation (% increase over control)
  activation at 625 µM: 9%
[1]; Homo sapiens, NHEK, 72 h, Table 4, Test C, 1.25 mM, read-out: Keratinocyte Proliferation (% increase over control)
  activation at 1250 µM: 2%
[1]; Homo sapiens, NHEK, 72 h, Table 4, Test C, 2.5 mM, read-out: Keratinocyte Proliferation (% increase over control)
  activation at 2500 µM: 11%
[1]; Homo sapiens, NHEK, 72 h, Table 4, Test C, 5.0 mM, read-out: Keratinocyte Proliferation (% increase over control)
  activation at 5000 µM: 0%
[1]; Homo sapiens, NHEK, 72 h, Table 4, Test C, 10 mM, read-out: Keratinocyte Proliferation (% increase over control)
  activation at 10000 µM: 0%
[1]; Homo sapiens, NHEK, 72 h, Table 4, Test D, read-out: Keratinocyte Proliferation (% increase over control)
  activation at 70 µM: 50%
[1]; Homo sapiens, NHEK, 72 h, Table 4, Test D, 0.156 mM, read-out: Keratinocyte Proliferation (% increase over control)
  activation at 156 µM: 47%
[1]; Homo sapiens, NHEK, 72 h, Table 4, Test D, 0.313 mM, read-out: Keratinocyte Proliferation (% increase over control)
  activation at 313 µM: 56%
[1]; Homo sapiens, NHEK, 72 h, Table 4, Test D, 0.625 mM, read-out: Keratinocyte Proliferation (% increase over control)
  activation at 625 µM: 57%
[1]; Homo sapiens, NHEK, 72 h, Table 4, Test D, 1.25 mM, read-out: Keratinocyte Proliferation (% increase over control)
  activation at 1250 µM: 42%
[1]; Homo sapiens, NHEK, 72 h, Table 4, Test D, 2.5 mM, read-out: Keratinocyte Proliferation (% increase over control)
  activation at 2500 µM: 44%
[1]; Homo sapiens, NHEK, 72 h, Table 4, Test D, 5.0 mM, read-out: Keratinocyte Proliferation (% increase over control)
  activation at 5000 µM: 18%
[1]; Homo sapiens, NHEK, 72 h, Table 4, Test E, read-out: Keratinocyte Proliferation (% increase over control)
  activation at 70 µM: 0%
[1]; Homo sapiens, NHEK, 72 h, Table 4, Test E, 0.156 mM, read-out: Keratinocyte Proliferation (% increase over control)
  activation at 156 µM: 6%
[1]; Homo sapiens, NHEK, 72 h, Table 4, Test E, 0.313 mM, read-out: Keratinocyte Proliferation (% increase over control)
  activation at 313 µM: 24%
[1]; Homo sapiens, NHEK, 72 h, Table 4, Test F, 0.313 mM, read-out: Keratinocyte Proliferation (% increase over control)
  activation at 313 µM: 5%
[1]; Homo sapiens, NHEK, 72 h, Table 4, Test F, 0.625 mM, read-out: Keratinocyte Proliferation (% increase over control)
  activation at 625 µM: 34%
[1]; Homo sapiens, NHEK, 72 h, Table 4, Test F, 1.25 mM, read-out: Keratinocyte Proliferation (% increase over control)
  activation at 1250 µM: 35%
[1]; Homo sapiens, NHEK, 72 h, Table 4, Test F, 2.5 mM, read-out: Keratinocyte Proliferation (% increase over control)
  activation at 2500 µM: 33%
[1]; Homo sapiens, NHEK, 72 h, Table 4, Test F, 5.0 mM, read-out: Keratinocyte Proliferation (% increase over control)
  activation at 5000 µM: 7%
[1]; Homo sapiens, NHEK, 72 h, Table 4, Test F, 10 mM, read-out: Keratinocyte Proliferation (% increase over control)
  activation at 10000 µM: 0%
[1]; Homo sapiens, NHEK, 72 h, Table 4, Test G, 0.313 mM, read-out: Keratinocyte Proliferation (% increase over control)
  activation at 313 µM: 38%
[1]; Homo sapiens, NHEK, 72 h, Table 4, Test G, 0.625 mM, read-out: Keratinocyte Proliferation (% increase over control)
  activation at 625 µM: 11%
[1]; Homo sapiens, NHEK, 72 h, Table 4, Test G, 1.25 mM, read-out: Keratinocyte Proliferation (% increase over control)
  activation at 1250 µM: 24%
[1]; Homo sapiens, NHEK, 72 h, Table 4, Test G, 2.5 mM, read-out: Keratinocyte Proliferation (% increase over control)
  activation at 2500 µM: 12%
[1]; Homo sapiens, NHEK, 72 h, Table 4, Test G, 5.0 mM, read-out: Keratinocyte Proliferation (% increase over control)
  activation at 5000 µM: 18%
[1]; Homo sapiens, NHEK, 72 h, Table 4, Test G, 10 mM, read-out: Keratinocyte Proliferation (% increase over control)
  activation at 10000 µM: 0%
[1]; 0.156 mM
  Keratinocyte proliferation, % Increase Over Control: 41%
[1]; 0.313 mM
  Keratinocyte proliferation, % Increase Over Control: 28%
[1]; 0.625 mM
  Keratinocyte proliferation, % Increase Over Control: 55%
[1]; 1.25 mM
  Keratinocyte proliferation, % Increase Over Control: 55%
[1]; 2.5 mM
  Keratinocyte proliferation, % Increase Over Control: 18%
[1]; 5.0 mM
  Keratinocyte proliferation, % Increase Over Control: 0%
